Molecules are shown by their SMILES.

This data set can be described thus: gradient 5% acetonitrile 3 min, to 50% in 2 min, to 85% in 15 min, held 3 min, 100 µL/min. Particulars: column: Zorbax Extend-C18 2.1 x 50 mm; eluents: water / acetonitrile, 0.1% formic acid. Put shortly: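 Pure standards were run in mixtures of ~100 molecules by HPLC coupled to a quadrupole time-of-flight mass spectrometer. The column was a Zorbax Extend-C18 (2.1 × 50 mm, 1.8 μm) at 100 μL/min, with water and acetonitrile each containing 0.1% formic acid, in positive and negative ionization mode. Dead and dwell volumes were 40 μL and 900 μL. Retention time was taken from computationally picked adduct peaks, each manually inspected, with data collected over 3 months.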
As to `COc1ccc(NC(=O)c2ccc3[nH]c4c(c3c2)CN(C(=O)C2CCC2)CC4)c(OC)c1`, the RP-LC retention time was 807 s.

For `CCn1cc(C(=O)NCCC(C)C)c2nn(-c3ccccc3)c(=O)c-2c1`, the RP-LC retention time came to 878 s.

`Cc1cnc(-c2ccncc2)n1C1CCN(S(=O)(=O)c2ccc3c(c2)CCC3)C1` (centres undefined) showed an RP-LC retention time of 605 s.

The compound `COc1ccc(Cc2nc(-c3cccc(-c4ccnn4C)c3)no2)cc1OC` displayed an RP-LC retention time of 904 s.

`Cc1ccc2c(Nc3cccc(Cl)c3)c(C(=O)N3CCSCC3)cnc2n1`: the RP-LC retention time stood at 654 s.

For `Cc1ccc(NC(=O)Cc2nnc(-c3cnccn3)o2)c(Cl)c1`, the RP-LC retention time was determined as 720 s.

With `CC(C)CCNC(=O)C1CCCN(c2nc3ccsc3c(=O)n2Cc2ccc(F)cc2)C1` (centres undefined), the RP-LC retention time turned out to be 954 s.

`O=C1CCCc2cc(S(=O)(=O)N3CCCN(Cc4ccccc4Cl)C3)ccc2N1` gave an RP-LC retention time of 750 s.

`CCN1CCCC1CNC(=O)C1c2ccccc2C(=O)N(CCOC)C1c1cccs1` (centres undefined) gave an RP-LC retention time of 556 s.

In the case of `CCOc1cccc(CNC(=O)c2c(C)sc3ccn(CC)c(=O)c23)c1`, the RP-LC retention time worked out at 856 s.

As for `CCC(CC)N1CCC(F)(c2nc(-c3ccccc3)no2)CC1`, the RP-LC retention time is 704 s.

`Cc1cccc(NC(=O)C2CC(=O)N(c3ccc4oc(C)nc4c3)C2)c1` (centres undefined) had an RP-LC retention time of 708 s.

In turn, `O=S(=O)(c1cccn2c(SCc3ccc(F)cc3)nnc12)N1CCc2ccccc2C1` returned an RP-LC retention time of 944 s.

For the compound `COc1cc2c(cc1OC)CN(CCc1ccc(NC(=O)c3cc(OC)c(OC)cc3NC(=O)c3cnc4ccccc4c3)cc1)CC2`, the RP-LC retention time is 777 s.

Take `CC(C)n1cnc2cc(CNC(=O)c3cc(F)ccc3F)ccc21`: the RP-LC retention time was determined as 610 s.

In the case of `CCc1ccc(S(=O)(=O)N2CCC(c3nc(C(=O)N4CCOCC4)c(C)o3)CC2)cc1`, the RP-LC retention time was 904 s.

On to `CCOc1ccccc1C(=O)Nc1ccc2c(c1)Sc1ncccc1C(=O)N2C(C)C`, for which the RP-LC retention time stood at 871 s.

The compound `CC(C)Cn1cc(S(=O)(=O)Nc2cc(F)cc(F)c2)c2cccnc21` came in with an RP-LC retention time of 994 s.

As for `CN1C(C)(C)CCCC1(C)C`, the RP-LC retention time is 614 s.

As to `CCS(=O)(=O)N1CC(=O)N(c2ccc(F)cc2C)C(C)(C(=O)NC2CCCCCC2)C1` (centres undefined), the RP-LC retention time amounted to 925 s.

As for `Cc1ccc(CN2CCC(N3CC(F)(F)C[C@H]3COc3cccnc3)CC2)s1`, the RP-LC retention time is 587 s.

The compound `Cc1nn(CC(=O)NC2CCCCCC2)c(=O)c2nc(-c3ccccc3)sc12` came in with an RP-LC retention time of 930 s.

As to `CNC(=O)N1CCCN(C2=NS(=O)(=O)C(c3ccccc3)=C2C)CC1`, the RP-LC retention time was found to be 594 s.

As for `CC(=O)Nc1ccc2nc(-c3ccc(Cl)cc3)cc(OCC(N)=O)c2c1`, the RP-LC retention time worked out at 621 s.

`COc1cc2oc(=O)c(CC(=O)N3CCN(c4ccccn4)CC3)c(C)c2cc1OC` came in with an RP-LC retention time of 588 s.

In the case of `COCCC1CCN(C(=O)CN(C)C(=O)c2cnccn2)CC1`, the RP-LC retention time was found to be 580 s.

Consider `Cn1cccc1C(=O)N1CCc2nn(CC#N)c(=O)n2CC1`, for which the RP-LC retention time came to 622 s.

Take `Cc1ccc(NC(=O)NCC(c2cccnc2)c2cn(C)c3ccccc23)cc1Cl` (centres undefined): the RP-LC retention time was 773 s.

Regarding `CC(=O)NC[C@H]1CN(c2ccc(-c3ccc(CNCc4cn[nH]n4)cc3)c(F)c2)C(=O)O1`, the RP-LC retention time is 647 s.

`CCCCN(CCCC)c1nc(-c2ccccc2)nc2ccccc12` had an RP-LC retention time of 976 s.

In turn, `Cc1cccc(C)c1NC(=O)C1CCCN(c2nc3ccccc3nc2C(F)(F)F)C1` (centres undefined) gave an RP-LC retention time of 1170 s.

Turning to `Cc1ccc(-c2csc(NC(=O)c3coc4ccccc4c3=O)n2)o1`, the RP-LC retention time stood at 1070 s.

Take `Cc1ccc(N2CCC(NC(=O)Nc3ccccc3C(F)(F)F)C2=O)cc1` (centres undefined): the RP-LC retention time worked out at 898 s.

Turning to `CSc1ccccc1C(=O)N(CCc1ccccc1)Cc1ccccn1`, the RP-LC retention time amounted to 762 s.

Compound `O=C(Cn1c(=O)c(S(=O)(=O)c2ccccc2)cc2ccccc21)NC1CCCC1` came in with an RP-LC retention time of 840 s.

As for `CCC(C(=O)NCc1cccc(OC)c1OC)n1sc2ccccc2c1=O` (centres undefined), the RP-LC retention time was 988 s.

The compound `CCn1c(=O)sc2cc(S(=O)(=O)N3CCC(C(=O)NC4CCCCC4)CC3)ccc21` gave an RP-LC retention time of 876 s.

In the case of `CCCCNC(=O)C1CCN(c2cc(N3CCSCC3)ncn2)CC1`, the RP-LC retention time is 631 s.

Take `CCOC(=O)N1CCN(S(=O)(=O)c2cn(C)nc2C)CC1`: the RP-LC retention time was 644 s.

Consider `CCn1c(C)c(-c2nc(C3CC3)no2)c(S(=O)(=O)NCC2CCCO2)c1C` (centres undefined), for which the RP-LC retention time was found to be 768 s.

`CCc1cccc(NC(=O)C2CCN(S(=O)(=O)c3cc(C(=O)N4CCCC4)n(C)c3)CC2)c1` came in with an RP-LC retention time of 872 s.

Regarding `CC(C)(C)OC(=O)N1CCN(c2ncc(S(=O)(=O)c3ccc(Cl)cc3)c(N)n2)CC1`, the RP-LC retention time was determined as 1060 s.

`Cc1ccc(S(=O)(=O)N2CCC(CCC(=O)O)CC2)cc1` showed an RP-LC retention time of 799 s.

`COc1ccc(NC(=O)C2CCN(c3cncnc3N3CCOCC3)CC2)cc1` gave an RP-LC retention time of 605 s.

`Cn1cnc(S(=O)(=O)N2CCCCC2c2nc(-c3cccnc3)n[nH]2)c1` (centres undefined) yielded an RP-LC retention time of 594 s.

`Cc1cccc(C)c1NC(=O)Cn1ncc2c(c1=O)N(C1CC1)C(=O)CS2` gave an RP-LC retention time of 714 s.

Regarding `O=C(c1ccc(OCC2CCCN(C(=O)c3ccoc3)C2)cc1)N1CCOCC1` (centres undefined), the RP-LC retention time turned out to be 690 s.

`COCCN1C(=O)CCc2cc(NS(=O)(=O)c3ccccc3F)ccc21` came in with an RP-LC retention time of 726 s.

In turn, `CCNC(=O)C1CCCN(c2nc3ncn(CC(=O)NCc4ccccc4Cl)c(=O)c3s2)C1` (centres undefined) came in with an RP-LC retention time of 670 s.

Take `Cc1ccc2c(c1)C(O)(CC(=O)c1ccccc1)C(=O)N2` (centres undefined): the RP-LC retention time was 666 s.

Consider `CCOC(=O)N1CCC(NC(=O)c2cn(-c3cccc(Cl)c3)nn2)CC1`, for which the RP-LC retention time was 795 s.

For `COC(=O)c1c(NCCN2CCC(C)CC2)c2cccc(Cl)c2[nH]c1=O`, the RP-LC retention time was determined as 583 s.

Consider `Cc1ccc(C)c(N2CCN(S(=O)(=O)c3ccc(-c4c(C)noc4C)cc3)CC2)c1`, for which the RP-LC retention time stood at 1250 s.

`COc1ccc(C(=O)Nc2c(-c3ccc(F)cc3)nc3cc(C)ccn23)cc1OC` returned an RP-LC retention time of 647 s.

Compound `O=C(Nc1ccc(-c2nc(-c3ccc(Cl)cc3)no2)cc1)c1cccs1` had an RP-LC retention time of 1240 s.

With `COc1cccc(S(=O)(=O)N2CCC(OCCOCc3ccccc3)CC2)c1`, the RP-LC retention time worked out at 678 s.

For `O=C1[C@@H]2[C@H]3CC[C@H](C3)[C@@H]2C(=O)N1C[C@@H]1CCCC[C@H]1CN1CCN(c2nsc3ccccc23)CC1`, the RP-LC retention time came out at 884 s.

Turning to `CCOc1ccccc1-c1noc(-c2nn(-c3ccc(C)cc3)ccc2=O)n1`, the RP-LC retention time was 923 s.

With `CN1C(=O)c2cccn2CC1C(=O)NCc1ccc2c(c1)OCO2` (centres undefined), the RP-LC retention time was 657 s.

Regarding `CCn1cnc(S(=O)(=O)N2CCCC(C(=O)NCCCc3ccccc3)C2)c1` (centres undefined), the RP-LC retention time came to 769 s.

Compound `COc1ccc(-c2noc(Cc3nc(-c4ccc(Br)cc4)cs3)n2)c(OC)c1` came in with an RP-LC retention time of 1180 s.

As for `CCn1cnc(S(=O)(=O)N2CCCC(C(=O)Nc3ccc(Br)c(C)c3)C2)c1` (centres undefined), the RP-LC retention time was found to be 889 s.

In turn, `CSc1nnc(NC(=O)CN(C)S(C)(=O)=O)s1` had an RP-LC retention time of 603 s.

As for `O=C(Nc1ccccc1)c1cnc(-c2ccc(F)cc2)nc1-c1ccncc1`, the RP-LC retention time worked out at 892 s.

In turn, `Cc1ccc(CNC(=O)C2(C)CCCN(C(=O)Nc3ccc(Cl)cc3)C2)cc1` (centres undefined) registered an RP-LC retention time of 1010 s.

Consider `CN1CCn2cc(S(=O)(=O)Nc3ccc(F)cc3Cl)cc2C1=O`, for which the RP-LC retention time turned out to be 690 s.

For the compound `CCn1c(CN(C)C(=O)Nc2ccc(Br)cc2)nc2cc(C(=O)N(C)C)ccc21`, the RP-LC retention time was 657 s.

`CN1CCN(CCCNC(=O)C2c3ccccc3C(=O)N(C)C2c2cccs2)CC1` (centres undefined) displayed an RP-LC retention time of 573 s.

In the case of `CCN(C(=O)C1CCN(C(=O)c2cccc(F)c2)CC1)C1CCCCC1`, the RP-LC retention time turned out to be 855 s.

Regarding `CCc1ccc(OCC(=O)N(Cc2ccc(OC)cc2)C2CCS(=O)(=O)C2)cc1` (centres undefined), the RP-LC retention time came to 989 s.

In the case of `COc1ccc(CNC(=S)Nc2ccc3nc(N4CCN(C)CC4)cc(C)c3c2)c(OC)c1`, the RP-LC retention time is 600 s.

`Clc1nnc2c3ccccc3ccn12` came in with an RP-LC retention time of 747 s.

On to `COC(=O)CSCC(=O)Nc1cc(C)ccc1C`, for which the RP-LC retention time came out at 729 s.

As for `Cc1csc(-c2cc(S(=O)(=O)NCCN3CCC(C)CC3)cn2CC(=O)N2CCCCC2)n1`, the RP-LC retention time came out at 679 s.

For the compound `Cc1nn(-c2ccc(C(=O)N3CCN(C)CC3)cc2)c2c1C(=O)CC(C)(C)C2`, the RP-LC retention time was 593 s.

`CCCn1cc(C(=O)N2CCN(C3CCCCC3)CC2)c2cccnc21` gave an RP-LC retention time of 603 s.

`CCN1CCn2c(nc3cc(C(=O)NCc4ccc5c(c4)OCO5)ccc32)C1=O` returned an RP-LC retention time of 660 s.

As to `O=C(Nc1ccc2c(c1)OCO2)C1CC(=O)N(CCc2c[nH]c3ccc(Cl)cc23)C1` (centres undefined), the RP-LC retention time worked out at 801 s.

`CCC(=O)N1CCC([C@H]2[C@@H](OC)C(=O)N2C(C)C)CC1` came in with an RP-LC retention time of 644 s.

The values are drawn from the METLIN SMRT retention time set (Domingo-Almenara et al. 2019).
